PubChem BioAssay (NCI)
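GI50 = concentration required for 50% inhibition of growth. At the TGI there is no net growth.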

Legend:
Assay in all cases: NCI tumour cell line growth inhibition, 384-well format
[1] = test system: 786-0 renal
[2] = test system: A498 renal
[3] = test system: A549 NSCLC
[4] = test system: ACHN renal
[5] = test system: BT-549 breast
[6] = test system: CAKI-1 renal
[7] = test system: CCRF-CEM leukemia
[8] = test system: COLO 205 colon
[9] = test system: DU-145 prostate
[10] = test system: EKVX NSCLC
[11] = test system: HCC-2998 colon
[12] = test system: HCT-116 colon
[13] = test system: HCT-15 colon
[14] = test system: HL-60(TB) leukemia
[15] = test system: HOP-62 NSCLC
[16] = test system: HOP-92 NSCLC
[17] = test system: HS 578T breast
[18] = test system: HT29 colon
[19] = test system: IGROV1 ovarian
[20] = test system: K-562 leukemia
[21] = test system: KM12 colon
[22] = test system: LOX IMVI melanoma
[23] = test system: M14 melanoma
[24] = test system: MALME-3M melanoma
[25] = test system: MDA-MB-231 breast
[26] = test system: MDA-MB-435 melanoma
[27] = test system: MDA-MB-468 breast
[28] = test system: MOLT-4 leukemia
[29] = test system: NCI-H226 lung
[30] = test system: NCI-H23 lung
[31] = test system: NCI-H322M lung
[32] = test system: NCI-H460 NSCLC
[33] = test system: NCI-H522 lung
[34] = test system: NCI/ADR-RES ovarian
[35] = test system: OVCAR-3 ovarian
[36] = test system: OVCAR-4 ovarian
[37] = test system: OVCAR-8 ovarian
[38] = test system: PC-3 prostate
[39] = test system: RPMI-8226 leukemia
[40] = test system: RXF 393 renal
[41] = test system: SF-268 CNS
[42] = test system: SF-295 CNS
[43] = test system: SF-539 CNS
[44] = test system: SK-MEL-28 melanoma
[45] = test system: SK-MEL-5 melanoma
[46] = test system: SK-OV-3 ovarian
[47] = test system: SN12C renal
[48] = test system: SNB-19 CNS
[49] = test system: SNB-75 CNS
[50] = test system: SR leukemia
[51] = test system: SW-620 colon
[52] = test system: T-47D breast
[53] = test system: TK-10 renal
[54] = test system: U251 glioblastoma
[55] = test system: UACC-257 melanoma
[56] = test system: UACC-62 melanoma
[57] = test system: UO-31 renal

CCC(Sc1nnc2c3ccccc3n(CC)c2n1)C(=O)Nc1ccccc1OC (centres undefined)
GI50 [1]: > 100 µM | TGI [1]: > 100 µM | GI50 [2]: 4.74 µM | TGI [2]: > 100 µM | GI50 [3]: 4.27 µM | TGI [3]: > 100 µM | GI50 [4]: > 100 µM | TGI [4]: > 100 µM | GI50 [5]: > 100 µM | TGI [5]: > 100 µM | GI50 [6]: 384 nM | TGI [6]: 2650 nM | GI50 [7]: > 100 µM | TGI [7]: > 100 µM | GI50 [8]: > 100 µM | TGI [8]: > 100 µM | GI50 [9]: > 100 µM | TGI [9]: > 100 µM | GI50 [10]: 547 nM | TGI [10]: 5.44 µM | GI50 [11]: > 100 µM | TGI [11]: > 100 µM | GI50 [12]: > 100 µM | TGI [12]: > 100 µM | GI50 [13]: 7.59 µM | TGI [13]: > 100 µM | GI50 [14]: 444 nM | TGI [14]: 1480 nM | GI50 [15]: 3.56 µM | TGI [15]: > 100 µM | GI50 [16]: > 100 µM | TGI [16]: > 100 µM | GI50 [17]: > 100 µM | TGI [17]: > 100 µM | GI50 [18]: > 100 µM | TGI [18]: > 100 µM | GI50 [19]: > 100 µM | TGI [19]: > 100 µM | GI50 [20]: 7.45 µM | TGI [20]: > 100 µM | GI50 [21]: > 100 µM | TGI [21]: > 100 µM | GI50 [22]: > 100 µM | TGI [22]: > 100 µM | GI50 [23]: > 100 µM | TGI [23]: > 100 µM | GI50 [24]: > 100 µM | TGI [24]: > 100 µM | GI50 [25]: > 100 µM | TGI [25]: > 100 µM | GI50 [26]: > 100 µM | TGI [26]: > 100 µM | GI50 [27]: 229 nM | TGI [27]: 475 nM | GI50 [28]: 3.51 µM | TGI [28]: 79.7 µM | GI50 [29]: > 100 µM | TGI [29]: > 100 µM | GI50 [30]: 1670 nM | TGI [30]: 5.23 µM | GI50 [31]: 4.91 µM | TGI [31]: > 100 µM | GI50 [32]: > 100 µM | TGI [32]: > 100 µM | GI50 [33]: > 100 µM | TGI [33]: > 100 µM | GI50 [34]: > 100 µM | TGI [34]: > 100 µM | GI50 [35]: 3.28 µM | TGI [35]: > 100 µM | GI50 [36]: > 100 µM | TGI [36]: > 100 µM | GI50 [37]: > 100 µM | TGI [37]: > 100 µM | GI50 [38]: > 100 µM | TGI [38]: > 100 µM | GI50 [39]: 451 nM | TGI [39]: 1920 nM | GI50 [40]: > 100 µM | TGI [40]: > 100 µM | GI50 [41]: > 100 µM | TGI [41]: > 100 µM | GI50 [42]: > 100 µM | TGI [42]: > 100 µM | GI50 [43]: > 100 µM | TGI [43]: > 100 µM | GI50 [44]: > 100 µM | TGI [44]: > 100 µM | GI50 [45]: 5.43 µM | TGI [45]: > 100 µM | GI50 [46]: > 100 µM | TGI [46]: > 100 µM | GI50 [47]: 1180 nM | TGI [47]: 5.17 µM | GI50 [48]: > 100 µM | TGI [48]: > 100 µM | GI50 [49]: > 100 µM | TGI [49]: > 100 µM | GI50 [50]: 3.3 µM | TGI [50]: 5.99 µM | GI50 [51]: > 100 µM | TGI [51]: > 100 µM | GI50 [52]: > 100 µM | TGI [52]: > 100 µM | GI50 [53]: > 100 µM | TGI [53]: > 100 µM | GI50 [54]: > 100 µM | TGI [54]: > 100 µM | GI50 [55]: > 100 µM | TGI [55]: > 100 µM | GI50 [56]: > 100 µM | TGI [56]: > 100 µM | GI50 [57]: 3.74 µM | TGI [57]: > 100 µM
